From article PMC12610721, “The Action of Cannabidiol on Doxycycline Cytotoxicity in Human Cells—In Vitro Study” (Molecules, 2025)
“Also recorded” adds a separate entry of the source. Read-outs that look alike come from different tables or passages of the source.

Tests used:
SH-SY5Y cells [1] = settings: 72 h, Hoechst 33342/propidium iodide
Experimental: (§8) The type and extent of cell death in the control and treated cultures were evaluated using fluorochrome staining with Hoechst 33342 and propidium iodide to assess apoptosis and necrosis [88]. Dead cells were analyzed morphologically using a fluorescence microscope (Axiovert 200 M, Zeiss, Oberkochen, Germany). Cells with pink, fluorescent nuclei were considered necrotic, whereas cells with blue, fluorescent nuclei (fragmented and/or condensed chromatin) were classified as apoptotic.

SH-SY5Y cells [2] = test: proliferation, total cellular protein (TPC assay); settings: 72 h
Experimental: (§1) This innovative study evaluated the effects of cannabidiol (Cannabis sativa L.) on doxycycline-induced toxicity using three cell cultures: neural—SH-SY5Y, liver—HepG2, and kidney—HEK-293. […] A series of cytotoxicity assays included assessments of mitochondrial activity, lysosomal activity, cell membrane integrity, DNA synthesis, and cell proliferation. Based on the obtained results, IC50 values for doxycycline, both in monotherapy and in combination with CBD, were calculated, along with evaluations of ROS, death of cells, and morphology. The interaction between the drug and CBD was further analyzed by the combination index (CI).
(§2) This assay is based on staining total cellular proteins as a measure of proliferation. After incubation, the medium containing the test compounds was removed, and 100 µL of Coomassie Brilliant Blue R-250 dye was added to each well. The plate was shaken for 10 min. The dye was then removed, and the cells were rinsed twice with 100 µL of washing solution (glacial acetic acid/ethanol/water, 5:10:85, v/v/v). Next, 100 µL of desorbing solution (1 M potassium acetate) was added, and the plate was shaken again for 10 min. Absorbance was measured at 595 nm using the Synergy 2 Multi-Mode Microplate Reader (BioTek® Instruments Inc., Winooski, VT, USA), with a blank as reference. Cytotoxicity was expressed as a percentage relative to the negative control.
(§3) To determine the types of interaction that occur when cells are exposed to combinations of DOX and CBD, the method established by Chou and Talalay was used in this study. The dose–effect relationships of the individual and combined test compounds were modeled biometrically using the Median-Effect Equation based on the Mass Action Law.fa/fu = (D/Dm)^m
(§4) In this isobolographic analysis, the combination index (CI) is a quantitative parameter used to evaluate the type and strength of interactions between multiple compounds. For all combinations, CI values were calculated across a range of affected fractions (Fa) from 0.05 to 0.95 (corresponding to 5–95% toxicity). CI values of 0.9–1.1, <0.9, and >1.1 indicate additive, synergistic, and antagonistic effects, respectively.
(§5) The study was conducted in three independent experiments (n = 3). […] Cytotoxicity data were analyzed using one-way analysis of variance (ANOVA), followed by Dunnett’s post hoc test to assess significance relative to the negative control. The half-maximal inhibitory concentration (IC50), representing the drug or drug–CBD mixture concentration required to inhibit cell viability by 50%, was calculated using GraphPad Prism 5.0. Statistical comparisons between IC50 values were performed using ANOVA followed by Tukey’s post hoc test. Differences were considered statistically significant at p ≤ 0.05.

HepG2 cells [3] = test: proliferation, total cellular protein (TPC assay)
Experimental: as §1, §2, §3, §4, §5

HEK-293 cells [4] = test: proliferation, total cellular protein (TPC assay)
Experimental: as §1, §2, §3, §4, §5

SH-SY5Y cells [5] = test: lysosomal activity (NRU assay); settings: 72 h
Experimental: as §1
(§6) This method is based on staining viable cells with neutral red, a dye that readily diffuses through the plasma membrane and accumulates in lysosomes. After incubation with the test compounds, the medium containing the substances was removed, and the cells were washed with PBS. Subsequently, 100 µL/well of neutral red (NR) solution (50 µg/mL) was added and incubated for 3 h. After incubation, the cells were washed again with PBS. The dye retained in viable cells was extracted using a solution of acetic acid, ethanol, and water (1:50:49, v/v/v). After 10 min of shaking, the absorbance of the extracted dye was measured at 540 nm using a Synergy 2 Multi-Mode Microplate Reader (BioTek® Instruments Inc., Winooski, VT, USA), with a blank as reference. Cytotoxicity was expressed as a percentage relative to the negative control.
as §3, §4, §5

HepG2 cells [6] = test: lysosomal activity (NRU assay)
Experimental: as §1, §6, §3, §4, §5

HEK-293 cells [7] = test: lysosomal activity (NRU assay)
Experimental: as §1, §6, §3, §4, §5

HEK-293 cells [8] = test system: HEK-293 cells; parameters: method as in earlier work; settings: cited from earlier work; for IC50: HEK-293, 48 h of exposure
[9] = test system: human pluripotent stem cell-derived hepatocytes; settings: cited from earlier work
SH-SY5Y cells [10] = test: mitochondrial activity (MTT assay); settings: 72 h
Experimental: as §1
(§7) The metabolic activity of viable cells was assessed by measuring dehydrogenase activity. After exposing the cell cultures to the test compounds, 10 µL of MTT solution (5 mg/mL in PBS) was added to each well of a 96-well plate. After 3 h of incubation, the MTT solution was removed, and the intracellular formazan was dissolved in 100 µL of DMSO. The plate was shaken for 15 min at room temperature and transferred to a Synergy 2 Multi-Mode Microplate Reader (BioTek® Instruments Inc., Winooski, VT, USA) to measure absorbance at 570 nm, using a blank as reference. Cytotoxicity was expressed as a percentage relative to the negative control.
as §3, §4, §5

HepG2 cells [11] = test: mitochondrial activity (MTT assay)
Experimental: as §1, §7, §3, §4, §5

HEK-293 cells [12] = test: mitochondrial activity (MTT assay)
Experimental: as §1, §7, §3, §4, §5

HEK-293 cells [13] = test: apoptosis and necrosis (Hoechst 33342 + propidium iodide staining); assay type: cell-based, human; settings: HEK-293, 72 h
Experimental: as §8

HepG2 cells [14] = test system: HepG2 cells; parameters: method as in PMID 32867402; settings: cited from earlier work
HepG2 cells [15] = settings: 72 h exposure, cited from earlier work

## C[C@H]1c2cccc(O)c2C(=O)C2=C(O)[C@]3(O)C(=O)C(C(N)=O)=C(O)[C@@H](N(C)C)[C@@H]3[C@@H](O)[C@@H]21 [DOX, doxycycline hyclate]
SH-SY5Y cells [1]
  proportion of apoptotic and necrotic cells: increased the proportion of apoptotic and necrotic cells
SH-SY5Y cells [1]; listed as doxycycline
  proportion of apoptotic and necrotic cells: marked increase in apoptotic and necrotic cell populations
SH-SY5Y cells [2]; Homo sapiens
  IC50: > 200 µg/mL
SH-SY5Y cells [2]; TPC
  doxycycline concentration at which cell proliferation decreased: 50 µg/mL
HepG2 cells [3]; HepG2, TPC, 72 h
  doxycycline concentration that reduced cell proliferation: 50 µg/mL
HepG2 cells [3]; Homo sapiens, HepG2, 72 h
  IC50: > 200 µg/mL
HEK-293 cells [4]; HEK-293, TPC, 72 h
  doxycycline concentration that inhibited cell proliferation: 12.5 µg/mL
HEK-293 cells [4]; Homo sapiens, HEK293, 72 h
  IC50: 14.8 ± 1.3 µg/mL
SH-SY5Y cells [5]; Homo sapiens
  IC50: > 200 µg/mL
SH-SY5Y cells [5]; NRU
  doxycycline concentration at which lysosomal activity was inhibited: 50 µg/mL
HepG2 cells [6]; HepG2, NRU, 72 h
  doxycycline concentration that inhibited lysosomal activity: 25 µg/mL
HepG2 cells [6]; Homo sapiens, HepG2, 72 h
  IC50: 13.4 ± 0.9 µg/mL
HEK-293 cells [7]; HEK-293, NRU, 72 h
  doxycycline concentration that inhibited lysosomal activity: 6.25 µg/mL
HEK-293 cells [7]; Homo sapiens, HEK293, 72 h
  IC50: 12.7 ± 1 µg/mL
HEK-293 cells [8]; HEK-293, 20 µg/mL
  effect on cell viability: reduces the viability
  induction of apoptosis: does not induce apoptosis
HEK-293 cells [8]; converted value in brackets
  IC50: 6.05 µg/mL
HEK-293 cells [8]; read-out: IC50
  IC50: 11.8 µM
[9]
  effect on mitochondrial membrane: depolarized the mitochondrial membrane
SH-SY5Y cells [10]; Homo sapiens
  IC50: 9.8 ± 0.9 µg/mL
SH-SY5Y cells [10]; MTT, p ≤ 0.05 vs negative control
  doxycycline concentration from which mitochondrial activity was inhibited: 6.25 µg/mL
HepG2 cells [11]; HepG2, MTT, 72 h
  doxycycline concentration that impaired mitochondrial function: 50 µg/mL
HepG2 cells [11]; Homo sapiens, HepG2, 72 h
  IC50: > 200 µg/mL
HEK-293 cells [12]; HEK-293, MTT, 72 h
  doxycycline concentration that inhibited mitochondrial activity: 6.25 µg/mL
HEK-293 cells [12]; Homo sapiens, HEK293, 72 h
  IC50: 17.4 ± 1 µg/mL
HEK-293 cells [13]
  apoptotic and necrotic cell fractions: increased apoptotic and necrotic cell fractions; also recorded: significant increase in apoptotic and necrotic cells
HepG2 cells [14]; HepG2, converted value in brackets
  concentration causing about a 50% reduction in cell viability: 10.3 to 13.0 µg/mL
HepG2 cells [14]; HepG2, read-out: concentration causing about a 50% reduction in cell viability
  IC50: 20 to 25 µM
HepG2 cells [15]; converted value in brackets
  IC50 of mitochondrial inhibition: 10.3 µg/mL
HepG2 cells [15]; read-out: IC50 of mitochondrial inhibition
  IC50: 20 µM
